Laboratory results published in patent US6555569B2, “Use of heteroaryl substituted N-(indole-2-carbonyl-) amides for treatment of infection” (Pfizer Inc., priority 2000, dated 2003).
≈ marks a conversion by molar mass, not a printed value.

How the values were obtained:
[1] = system: Chlamydia pneumoniae; experiment: Chlamydia pneumoniae infection of HEp-G2 cells, Protocol 2 (compound added 15 h after challenge); assay type: cell-based; details: for MIC: Chlamydia pneumoniae, Protocol 2, compound added 15 h after challenge of HEp-G2 cells
Description: (§1) Protocol 1 was performed in 96-well flat-bottom microtiter plates. Each well contained 100 μL of 10^6 HEp-G2 cells/ml in standard medium that had been incubated for 24 h at 37° C. in 5% CO2. Compound stocks were prepared in dimethylsulfoxide, diluted in two-fold serial dilutions, and added to each well as 10 μL aliquots. Each compound concentration was assayed in triplicate. Elementary bodies (chlamydial stock) were diluted to contain 2×10^4inclusion-forming units (ifu) per milliliter and 90 μL was added to each well. Infection was allowed to proceed for 72 h at 37° C. in 5% CO2, after which the cells were fixed and stained with genus-reactive anti-LPS antibody. The use of a fluorescein (FITC)-conjugated secondary antibody allowed the number of inclusion-containing cells to be identified via inverted fluorescent microscopy. The minimum inhibitory concentration (MIC) was defined as the lowest concentration of compound that inhibited the formation of inclusions. The minimal bactericidal concentration (MBC) was defined as the lowest concentration of compound that prevented the formation of inclusions after the compound had been removed by the addition of fresh medium and the cultures had been incubated for a further 48 h. Procedures for growth and preparation of C. pneumoniae and HEp-G2 cells are described in Kalayoglu, M. V., et al., J. Infect. Dis., 1999, 180:780-790. Methodology for detecting inclusions using an direct fluorescent antibody technique is found in Byrne, G. I., et al. J. Infect. Dis., 1993, 168:415-420.
Protocol 2 was nearly identical to protocol 1 except that compound was added 15 h after challenge of HEp-G2 cells with C. pneumoniae. This protocol helps distinguish compounds that interfere with latter stages of C. pneumoniae growth and replication.

[2] = system: Chlamydia pneumoniae; experiment: Chlamydia pneumoniae infection of HEp-G2 cells, Protocol 1; assay type: cell-based; details: for MIC / MBC: Chlamydia pneumoniae, Protocol 1; for MIC: HEp-G2 cells, 72 h infection, lowest concentration that inhibited the formation of inclusions; for MBC: no inclusions after compound removed and further 48 h incubation; for activity against growth of C. pneumoniae in HEp-2 cells: as shown in Table 2
Description: as §1

[3] = system: C. pneumoniae; experiment: C. pneumoniae protocol that treats HEp-G2 cells with cycloheximide; assay type: cell-based, Chlamydia pneumoniae; details: cycloheximide 1 μg/mL

| Structure (SMILES) | MIC [1] [µg/mL] | interfering with the latter stage of pneumoniae growth and replication ([1]; comparison of compound 1 with compound 2) | MIC [2] [µg/mL] | MBC [2] [µg/mL] | activity against growth of C. pneumoniae in HEp-2 cells [2] | MICs in a protocol that treats HEp-G2 cells with cycloheximide [3] |
| --- | --- | --- | --- | --- | --- | --- |
| O=C(N[C@@H](Cc1ccc(F)cc1)C(=O)N1CCC(O)CC1)c1cc2cc(Cl)ccc2[nH]1 [Compound 1] | 12.5 (≈ 28.2 µM) | superior to compound 2 | 12.5 (≈ 28.2 µM) | 25 (≈ 56.3 µM) | exhibited activity | did not differ |
| O=C(N[C@@H](Cc1ccccc1)C(=O)N1CC(O)C1)c1cc2cc(Cl)ccc2[nH]1 [Compound 2] | 50 (≈ 126 µM) | – | 25 (≈ 62.8 µM) | 25 (≈ 62.8 µM) | exhibited activity | did not differ |
